The source of these data is patent US20240208997A1, “CYCLIC BENZIMIDAZOLE DERIVATIVES AS CGAS INHIBITORS” (Boehringer Ingelheim International GmbH, priority 2022, published 2024).

Test [1] concerns IFN induction in virus-stimulated THP1 cells. Put plainly: Human cGAS cell assay, virus-stimulated THP1-Dual cells (THP1(vir) IC50). Format: cell-based. From the text: (§1) 6.2 Method: Human cGAS Cell Assay and cGAMP Stimulated Counter Cell Assay (THP1(vir) IC50 and THP1(cGAMP) IC50)
THP1-Dual™ cells (InvivoGen #thpd-nfis) expressing IRF dependent Lucia luciferase reporter were used as basis for both assays. For the detection of cellular cGAS activity cells were stimulated by a baculovirus (pFastbac-1, Invitrogen, no coding insert) infection that delivers the cGAS enzyme stimulating double-stranded DNA (measurement of THP1(vir) IC50).
(§2) Pathway activity was monitored by measuring the Lucia luciferase activity induced by either DNA stimulated cGAS enzyme activity (measurement of THP1(vir) IC50) or by cGAMP directly (measurement of THP1(cGAMP) IC50, counter assay).
(§3) Compounds were delivered in 10 mM DMSO solution, serially diluted and transferred to the 384 well assay plate (Greiner #781201) using an Echo acoustic dispenser. Typically, 8 concentrations were used with the highest concentration at 10 μM in the final assay volume followed by ^˜1:5 dilution steps. DMSO concentration was set to 1% in the final assay volume. The 384 well assay plate contained […] (column 1-22), and DMSO in column 23 and 24.
(§4) Cells, cultivated according to manufacturer conditions, were harvested by centrifugation at 300 g/10 min and were then resuspended and diluted to 1.66E5 cells/ml in fresh cell culture medium (RPMI 1640 (Gibco #A10491-01), 10% FCS (Gibco #10500), 1× GlutaMax (Gibco #35050-061), 1× Pen/Strep solution (Gibco #15140-122), 100 μg/ml Normocin (InvivoGen #ant-nr), 100 μg/ml Zeocin (InvivoGen #ant-zn), 10 μg/ml Blasticidin S (Life Technologies #A11139-03)). The baculovirus solution was then added 1:200 (have varied according to virus batch) to the cells (measurement of THP1(vir) IC50).
(§5) 30 μL of the cell/virus-mix were added to each well of the compound plate from column 1-23 via MultiDrop Combi dispenser (5000 cells/well). In column 24, 30 μl/5000 cells/well without virus were added as a low control.
(§6) The plates were then incubated for 18 h at 37° C. in a humidified incubator.
(§7) Following that, 15 μL of QuantiLuc detection reagent (InvivoGen #rep-qlcg5) were added to each well using a MultiDrop Combi. Measurement was done immediately after the addition using an EnVision reader (US-luminescence read-mode).
(§8) Data Evaluation and Calculation:
(§9) For data evaluation and calculation, the measurement of the low control was set as 0% control and the measurement of the high control was set as 100% control. The IC50 values were calculated using the standard 4 parameter logistic regression formula. Calculation: [y=(a−d)/(1+(x/c)^b)+d], a=low value, d=high value; x=conc M; c=IC50 M; b=slope

For test [2], the system named is IFN induction in cGAMP-stimulated THP1 cells. Put plainly: cGAMP stimulated counter cell assay in THP1-Dual cells (THP1(cGAMP) IC50). The conditions noted are these: Homo sapiens, read-out: THP1(cGAMP) IC50. The format is cell-based, human.
Description: as §1
For the counter assay, cells were stimulated by cGAMP (SigmaAldrich #SML1232) to activate the identical pathway independent and directly downstream of cGAS (measurement of THP1(cGAMP) IC50).
as §2, §3, §4, §5, §6, §7, §8, §9

In test [3] the target is T1, cGAS (Homo sapiens, UniProt Q8N884). The conditions noted are these: page 65, Table 2 of WO 2022/174012; read-out: enzymatic IC50-value, group; cited from earlier work.
T1 sequence (Q8N884 whole entry): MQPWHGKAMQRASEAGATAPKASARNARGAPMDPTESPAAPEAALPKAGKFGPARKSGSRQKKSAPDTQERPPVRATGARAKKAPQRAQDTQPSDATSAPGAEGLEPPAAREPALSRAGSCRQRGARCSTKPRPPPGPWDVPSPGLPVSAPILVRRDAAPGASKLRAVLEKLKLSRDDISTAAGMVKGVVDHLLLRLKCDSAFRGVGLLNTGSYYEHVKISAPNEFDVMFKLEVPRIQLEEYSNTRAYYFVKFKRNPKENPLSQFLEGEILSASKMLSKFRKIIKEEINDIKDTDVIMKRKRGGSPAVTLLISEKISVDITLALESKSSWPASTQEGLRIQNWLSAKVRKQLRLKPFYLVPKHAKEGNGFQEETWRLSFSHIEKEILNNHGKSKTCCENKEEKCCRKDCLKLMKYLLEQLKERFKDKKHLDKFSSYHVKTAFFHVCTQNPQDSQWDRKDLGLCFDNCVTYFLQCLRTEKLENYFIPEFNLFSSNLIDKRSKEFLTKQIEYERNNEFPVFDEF
The subject of the next test is THP-1. The following applies: page 67 and 68, Table 3 of WO 2022/174012; read-out: cellular IC50-value (IFNβ ELISA stimulated with THP-1), group; cited from earlier work. Background: An ELISA detects its analyte on a solid surface through an enzyme-linked reagent.
Test [4] concerns IFN induction in virus-stimulated THP1 cells. The following applies: Table 4; compounds of PCT/EP2022/062480 and PCT/EP2022/062496 and their methyl ester prodrugs; read-out: THP1(vir) IC50; cited from earlier work.
Test [5] concerns IFN induction in cGAMP-stimulated THP1 cells. The following applies: Table 4; compounds of PCT/EP2022/062480 and PCT/EP2022/062496 and their methyl ester prodrugs; cited from earlier work.
Test [6] relates to IFN induction in dsDNA-stimulated human whole blood. The following applies: Table 4; compounds of PCT/EP2022/062480 and PCT/EP2022/062496 and their methyl ester prodrugs; read-out: hWB IC50; cited from earlier work.
Test [7] addresses T1, cGAS. More on the design: HumancGAS (amino acid 1-522) with an N-terminal 6×-His-tag and SUMO-tag; 6xHis (N); SUMO (N); made in house; host or cells: E. coli BL21(DE3) pLysS. The following applies: Table 4; compounds of PCT/EP2022/062480 and PCT/EP2022/062496 and their methyl ester prodrugs; read-out: hcGAS IC50; cited from earlier work.
The target in test [8] is T1, cGAS. The following applies: groups as on page 44/45 of WO 2020/142729; read-out: biochemical (in vitro) IC50-value, group; cited from earlier work.
Where [9] appears, read: THP-1, Table 2, compounds of WO 2020/142729, read-out: THP1(vir) IC50.
Setting [10] is: THP-1, Table 2, compounds of WO 2020/142729.

Molecules are shown by their SMILES. Where two headings read alike, the source gives them in different places. Some results are limits rather than exact numbers.

Turning to `Cc1nc(N2C[C@@H](CC(=O)Nc3ccc(-c4ccccc4)cc3)C[C@H]2C(=O)O)c2oc3ccccc3c2n1` [Compound 5, reference compound], the IC50 (commonly the concentration at which inhibition is half-maximal) was greater than 10 µM in [1] (THP-1, Table 3, Compound No. 5 of WO 2022/174012, read-out: THP1(vir) IC50); greater than 10 µM in test [2] (THP-1, Table 3, Compound No. 5 of WO 2022/174012); 0.05 to 0.1 µM on cGAS [3]; less than 1 µM in the test with THP-1.

For the compound `CO[C@]1(c2cc(Cl)cnc2O[C@H]2C[C@@H](C(=O)O)N(c3nc(C(F)F)nc4c3oc3ccccc34)C2)CC(C)(C)S(=O)(=O)C[C@@H]1C` [Ex. 1.05 of PCT/ EP2022/062496], the IC50 in test [4] is 0.044 µM; in [5], 13.2 µM; in test [6], 0.135 µM.

Regarding `C[C@@H]1N(c2cc(Br)cnc2OC2C[C@@H](C(=O)O)N(c3nc(C(F)(F)F)nc4c3oc3ccccc34)C2)CCOC12COC2` (some centres unmarked) [Ex. 1.10 of PCT/EP2022/062 480], the IC50 in test [4] was 0.091 µM; in test [5], 16.1 µM; in test [6], 0.033 µM; at cGAS [7], 0.005 µM.

Consider `C#Cc1cnc(O[C@H]2C[C@@H](C(=O)O)N(c3nc(C(F)(F)F)nc4c3oc3ccccc34)C2)c(N2CCOC3(COC3)[C@@H]2C)c1` [Ex. 1.12 of PCT/EP2022/062 480], for which the IC50 in test [4] was 0.007 µM; in test [5], 11.9 µM; in test [6] it was 0.015 µM.

For the compound `C[C@H]1CS(=O)(=O)CC[C@]1(F)c1cc(Cl)cnc1O[C@H]1C[C@@H](C(=O)O)N(c2nc(C(F)F)nc3c2oc2ccccc23)C1` [Ex. 1.13 of PCT/ EP2022/062496], the IC50 in test [5] was 22.5 µM; in test [6], 0.006 µM.

Regarding `C#Cc1cnc(O[C@H]2C[C@@H](C(=O)O)N(c3nc(C(F)(F)F)nc4c3oc3ccccc34)C2)c([C@@]2(F)CCS(=O)(=O)C[C@@H]2C)c1` [Ex. 2.12 of PCT/ EP2022/062496], the IC50 in test [5] was 21.8 µM; in [6] it was 0.008 µM.

For the compound `COc1ncccc1-c1cnc(O[C@H]2C[C@@H](C(=O)O)N(c3nc(C(F)(F)F)nc4c3oc3ccccc34)C2)c(N2CCOC3(COC3)[C@@H]2C)c1` [Ex. 3.14 of PCT/EP2022/062 480], the concentration for half-maximal inhibition (IC50) in [4] is 0.01 µM; in [5] it was 7.83 µM; in test [6], 0.026 µM.

Consider `C[C@@H]1N(c2cccnc2O[C@H]2C[C@@H](C(=O)O)N(c3nc(C(F)F)nc4c3oc3ccccc34)C2)CCOC12COC2` [Ex. 4.04 of PCT/EP2022/062 480], for which the IC50 in [4] is 0.386 µM; in [5] it was greater than 16.6 µM; in [6], 0.077 µM.

In the case of `Cc1nc(N2CCC[C@H]2C(=O)O)c2oc3ccccc3c2n1` [Example 15, reference compound], the IC50 in test [1] (setting [9]) and in [2] (setting [10]) was greater than 17 µM each time.

With `Cc1nc(N2C[C@@H](Cc3nn[nH]n3)C[C@H]2C(=O)O)c2oc3ccccc3c2n1` [Example 25, reference compound], the IC50 was greater than 17 µM in test [1] (setting [9]); 17 µM in test [1] (THP-1, running text, read-out: THP1(vir) IC50); greater than 17 µM in [2] (setting [10]); less than 0.1 µM on cGAS [8].

Regarding `Cc1nc(N2C[C@@H](CC(=O)Nc3ccncc3)C[C@H]2C(=O)O)c2oc3ccccc3c2n1` [Example 28, reference compound], the IC50 in test [1] (setting [9]) was greater than 32 µM.

Turning to `Cc1nc(N2C[C@@H](Nc3ccncc3)C[C@H]2C(=O)O)c2oc3ccccc3c2n1` [Example 38, reference compound], the IC50 in [1] (setting [9]) and in [2] (setting [10]) was greater than 17 µM in each case.

As to `CC(C)(C(=O)N[C@H]1C[C@@H](C(=O)O)N(c2nc(C(F)(F)F)nc3c2oc2ccccc23)C1)c1cn[nH]c1` [Example 58, reference compound], the IC50 in test [1] (setting [9]) was found to be 21 µM.

As to `COC(=O)[C@@H]1C[C@H](Oc2ncccc2N2CCOC3(COC3)[C@@H]2C)CN1c1nc(C(F)F)nc2c1oc1ccccc12` [P01 of PCT/EP2022/062 480], the half-inhibitory concentration (IC50) in test [4] was 0.358 µM; in test [5] it was 26.1 µM; in test [6], 1.31 µM; at cGAS [7], greater than 9.96 µM.

Regarding `C#Cc1cnc(O[C@H]2C[C@@H](C(=O)OC)N(c3nc(C(F)(F)F)nc4c3oc3ccccc34)C2)c([C@@]2(F)CCS(=O)(=O)C[C@@H]2C)c1` [P01 of PCT/EP2022/062 496], the IC50 was 0.011 µM in [4], greater than 16.6 µM in [5] and 0.067 µM in [6].

Consider `COC(=O)[C@@H]1C[C@H](Oc2ncc(Cl)cc2[C@@]2(F)CCS(=O)(=O)C[C@@H]2C)CN1c1nc(C(F)F)nc2c1oc1ccccc12` [P02 of PCT/ EP2022/062496], for which the IC50 in test [4] was 0.029 µM; in test [5], greater than 16.6 µM; in test [6], 0.14 µM; on cGAS [7] it was greater than 9.95 µM.

In the case of `COC(=O)[C@@H]1C[C@H](Oc2ncc(Br)cc2N2CCOC3(COC3)[C@@H]2C)CN1c1nc(C(F)(F)F)nc2c1oc1ccccc12` [P02 of PCT/EP2022/062 480], the IC50 in [4] was 0.444 µM; in [5] it was 17.1 µM; in test [6], 5.33 µM; at cGAS [7], greater than 9.95 µM.

In the case of `COC(=O)[C@@H]1C[C@H](Oc2ncc(Cl)cc2[C@@]2(OC)CC(C)(C)S(=O)(=O)C[C@@H]2C)CN1c1nc(C(F)F)nc2c1oc1ccccc12` [P03 of PCT/ EP2022/062496], the IC50 in test [4] was 0.202 µM; in test [5], 20.6 µM; in [6], 1.99 µM.

`C#Cc1cnc(O[C@H]2C[C@@H](C(=O)OC)N(c3nc(C(F)(F)F)nc4c3oc3ccccc34)C2)c(N2CCOC3(COC3)[C@@H]2C)c1` [P03 of PCT/EP2022/062 480]: the values for the IC50 in test [4], in test [5] and in test [6] were 0.188 µM, 22.8 µM and 1.09 µM, respectively.

`COC(=O)[C@@H]1C[C@H](Oc2ncc(-c3cccnc3OC)cc2N2CCOC3(COC3)[C@@H]2C)CN1c1nc(C(F)(F)F)nc2c1oc1ccccc12` [P04 of PCT/EP2022/062 480]: the IC50 is 0.067 µM in test [4], greater than 16.6 µM in test [5], 2.75 µM in test [6] and greater than 9.95 µM on cGAS [7].
